Assay results: ChEMBL document CHEMBL3751661, “The influence of 5-HT(2A) activity on a 5-HT(2C) specific in vivo assay used for early identification of multiple acting SERT and 5-HT(2C) receptor ligands” (Bioorg Med Chem Lett, 2016)
Calls of active or inactive are those of the source. The calls are words filed in the database; no cut-off is given here.

Experiments:
Mus musculus [1] = assay: Inhibition of mCPP-induced hypomotility in ip dosed NMRI mouse assessed as rearing count up to 60 mins; assay type: functional; conditions: 1 h
[2] = Intrinsic clearance in mouse liver microsomes at 2.5 uM; assay type: ADME
[3] = target: 5-hydroxytryptamine receptor 2B (Homo sapiens) (UniProt P41595); assay: Displacement of [3H]-LSD from human 5HT2B receptor at 1 uM
[4] = target: 5-hydroxytryptamine receptor 1A (Homo sapiens) (UniProt P08908); assay: Displacement of [3H]-8-OH-DPAT from human 5HT1A receptor at 1 uM
[5] = target: 5-hydroxytryptamine receptor 2A (Rattus norvegicus, UniProt P14842); assay: Displacement of [3H]ketanserin from 5HT2A in Wistar rat frontal cortex membranes after 1 hr by liquid scintillation spectrometry; assay type: cell membranes, Membrane
Liver microsome = assay: Intrinsic clearance in human liver microsomes at 2.5 uM; assay type: ADME
[6] = Efflux ratio of the compound from apical to basolateral side to basolateral to apical side in human vinblastine-treated Caco2 cells; assay type: ADME, cell-based; conditions: caco-2
[7] = target: Sodium-dependent serotonin transporter (Rattus norvegicus, UniProt P31652); assay: Displacement of [3H]citalopram from SERT in Sprague-Dawley rat whole brain membranes after 1 hr by liquid scintillation spectrometry; assay type: tissue-based, Membrane
[8] = target: T1, 5-hydroxytryptamine receptor 2C (Rattus norvegicus, UniProt P08909); assay: Displacement of [3H]mesulergine from 5HT2C in Sprague-Dawley rat whole brain membranes after 1 hr by liquid scintillation spectrometry; assay type: tissue-based, Membrane
T1 sequence (P08909 whole entry): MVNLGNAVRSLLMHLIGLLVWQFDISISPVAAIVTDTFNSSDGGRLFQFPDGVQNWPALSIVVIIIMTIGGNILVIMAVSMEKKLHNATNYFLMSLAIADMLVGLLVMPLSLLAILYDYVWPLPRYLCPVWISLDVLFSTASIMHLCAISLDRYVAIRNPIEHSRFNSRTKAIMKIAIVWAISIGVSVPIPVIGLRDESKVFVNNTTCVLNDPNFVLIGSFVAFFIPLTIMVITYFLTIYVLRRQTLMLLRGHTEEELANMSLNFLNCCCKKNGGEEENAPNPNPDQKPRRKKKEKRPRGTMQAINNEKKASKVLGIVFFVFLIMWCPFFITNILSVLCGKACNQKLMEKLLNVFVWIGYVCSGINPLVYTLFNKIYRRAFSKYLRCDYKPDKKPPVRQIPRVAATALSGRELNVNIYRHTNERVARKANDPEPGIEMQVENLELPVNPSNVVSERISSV

[9] = target: Sodium-dependent serotonin transporter (Homo sapiens, UniProt P31645); assay: Binding affinity to SERT (unknown origin)
[10] = target: Sodium-dependent serotonin transporter (Rattus norvegicus) (UniProt P31652); assay: Displacement of [3H]citalopram from SERT in Sprague-Dawley rat whole brain membranes at 1 uM after 1 hr by liquid scintillation spectrometry; assay type: tissue-based; conditions: Membrane
[11] = Apparent permeability of the compound from apical to basolateral side in human vinblastine-treated Caco2 cells; assay type: ADME, cell-based; conditions: caco-2
Mus musculus [12] = assay: Potentiation of mCPP-induced hypomotility in NMRI mouse at 20 to 40 mg/kg, ip up to 60 mins; assay type: ADME, organism-based; conditions: in vivo, 1 h
Mus musculus [13] = assay: Inhibition of mCPP-induced hypomotility in NMRI mouse assessed as reductiion in vertical hypoactivity at 20 to 40 mg/kg, ip up to 60 mins; assay type: functional, organism-based
[14] = target: T2, 5-hydroxytryptamine receptor 2A (Homo sapiens, UniProt P28223); assay: Antagonist activity at human 5-HT2A receptor expressed in CHO-K1 cells assessed as inhibition of 5HT-induced Ca2+ release at 10 uM by fluorometry assay; assay type: functional, cell-based
Mus musculus [15] = assay: Induction of motor depression in C57BL/6J mouse assessed as total duration of immobility was measured over a period of 6 mins at 20 to 80 mg/kg, ip by tail suspension test; assay type: organism-based; conditions: in vivo, 0.1 h
[16] = target: T3, 5-hydroxytryptamine receptor 2C (Homo sapiens) (UniProt P28335); assay: Antagonist activity at human 5-HT2C receptor expressed in CHO-K1 cells assessed as inhibition of 5HT-induced Ca2+ release at 10 uM by fluorometry assay; assay type: functional, cell-based
T3 sequence (whole entry): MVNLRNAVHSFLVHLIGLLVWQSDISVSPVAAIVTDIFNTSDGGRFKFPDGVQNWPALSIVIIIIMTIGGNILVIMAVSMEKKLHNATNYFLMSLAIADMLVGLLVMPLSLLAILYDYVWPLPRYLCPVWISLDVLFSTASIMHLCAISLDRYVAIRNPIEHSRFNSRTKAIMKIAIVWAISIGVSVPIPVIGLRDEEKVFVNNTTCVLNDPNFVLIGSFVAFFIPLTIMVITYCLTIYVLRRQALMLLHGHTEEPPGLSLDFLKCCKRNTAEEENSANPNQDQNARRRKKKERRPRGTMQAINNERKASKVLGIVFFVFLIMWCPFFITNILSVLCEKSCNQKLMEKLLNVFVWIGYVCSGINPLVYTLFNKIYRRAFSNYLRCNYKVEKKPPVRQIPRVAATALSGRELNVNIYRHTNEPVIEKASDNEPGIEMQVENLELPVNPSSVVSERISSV

Mus musculus [17] = assay: Inhibition of hypomotility in NMRI mouse assessed as reduction in rearing at 20 mg/kg, ip in presence of 0.1 to 1 mg/kg, sc selective 5-HT2C antagonist SB-242084; assay type: functional, organism-based
Mus musculus [18] = assay: Induction of motor depression in C57BL/6J mouse assessed as total duration of immobility was measured over a period of 6 mins at 25 to 100 mg/kg, ip by tail suspension test; assay type: organism-based; conditions: in vivo, 0.1 h
Mus musculus [19] = assay: Inhibition of mCPP-induced hypomotility in NMRI mouse assessed as reductiion in vertical hypoactivity at 40 to 80 mg/kg, ip up to 60 mins; assay type: functional, organism-based
Mus musculus [20] = assay: Effect on spontaneous rearing behavior in NMRI mouse at 5 to 80 mg/kg, ip; assay type: ADME, organism-based; conditions: in vivo
[21] = target: T2, 5-hydroxytryptamine receptor 2A; assay: Binding affinity to 5HT2A (unknown origin)
[22] = target: T4, 5-hydroxytryptamine receptor 2C (Homo sapiens, UniProt P28335); assay: Binding affinity to 5HT2C (unknown origin)
T4 sequence (P28335 whole entry): T3 sequence (whole entry)

Chain of Sodium-dependent serotonin transporter (Rattus norvegicus, UniProt P31652) (P31652 whole entry): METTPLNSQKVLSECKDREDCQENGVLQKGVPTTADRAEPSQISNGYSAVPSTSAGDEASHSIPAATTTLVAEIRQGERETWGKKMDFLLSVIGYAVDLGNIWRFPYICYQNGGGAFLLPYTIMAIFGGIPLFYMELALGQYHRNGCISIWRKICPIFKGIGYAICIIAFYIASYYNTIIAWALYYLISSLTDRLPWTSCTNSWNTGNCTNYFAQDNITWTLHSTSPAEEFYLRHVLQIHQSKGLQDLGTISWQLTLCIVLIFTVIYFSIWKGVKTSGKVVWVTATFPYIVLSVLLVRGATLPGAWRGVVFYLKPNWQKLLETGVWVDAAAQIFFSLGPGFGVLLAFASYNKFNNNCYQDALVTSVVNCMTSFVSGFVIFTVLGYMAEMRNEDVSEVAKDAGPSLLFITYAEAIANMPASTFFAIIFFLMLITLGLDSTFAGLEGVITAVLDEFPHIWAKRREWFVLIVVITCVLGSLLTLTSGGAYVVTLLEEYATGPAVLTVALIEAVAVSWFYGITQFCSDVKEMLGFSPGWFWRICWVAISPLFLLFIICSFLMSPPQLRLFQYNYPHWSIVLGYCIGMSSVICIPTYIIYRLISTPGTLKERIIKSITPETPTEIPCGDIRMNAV
Chain of 5-hydroxytryptamine receptor 2B (Homo sapiens) (P41595 whole entry): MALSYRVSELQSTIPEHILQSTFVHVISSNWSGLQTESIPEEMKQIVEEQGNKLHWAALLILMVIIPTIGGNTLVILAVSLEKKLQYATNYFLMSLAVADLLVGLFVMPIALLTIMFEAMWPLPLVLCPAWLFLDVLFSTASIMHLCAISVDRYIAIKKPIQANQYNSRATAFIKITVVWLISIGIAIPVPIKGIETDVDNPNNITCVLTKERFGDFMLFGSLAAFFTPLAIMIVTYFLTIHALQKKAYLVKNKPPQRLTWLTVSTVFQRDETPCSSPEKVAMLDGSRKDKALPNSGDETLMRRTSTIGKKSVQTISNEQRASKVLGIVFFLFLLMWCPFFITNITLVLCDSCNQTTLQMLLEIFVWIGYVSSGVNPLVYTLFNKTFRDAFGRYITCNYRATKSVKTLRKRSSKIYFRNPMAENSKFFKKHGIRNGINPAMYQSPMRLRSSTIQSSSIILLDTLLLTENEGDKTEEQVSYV
Chain of 5-hydroxytryptamine receptor 2A (Rattus norvegicus, UniProt P14842) (P14842 whole entry): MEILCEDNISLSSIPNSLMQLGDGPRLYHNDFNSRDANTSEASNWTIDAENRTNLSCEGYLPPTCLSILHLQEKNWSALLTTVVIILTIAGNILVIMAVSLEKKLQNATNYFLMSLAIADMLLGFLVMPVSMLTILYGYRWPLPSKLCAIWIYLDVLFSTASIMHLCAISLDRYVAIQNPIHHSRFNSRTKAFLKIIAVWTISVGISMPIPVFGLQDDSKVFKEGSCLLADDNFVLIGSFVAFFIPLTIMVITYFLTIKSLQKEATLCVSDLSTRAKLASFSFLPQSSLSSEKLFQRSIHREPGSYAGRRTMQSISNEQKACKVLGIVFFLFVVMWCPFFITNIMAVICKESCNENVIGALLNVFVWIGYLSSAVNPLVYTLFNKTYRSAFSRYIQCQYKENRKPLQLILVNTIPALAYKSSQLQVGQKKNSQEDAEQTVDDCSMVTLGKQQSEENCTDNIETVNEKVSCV
T2 sequence (P28223 whole entry): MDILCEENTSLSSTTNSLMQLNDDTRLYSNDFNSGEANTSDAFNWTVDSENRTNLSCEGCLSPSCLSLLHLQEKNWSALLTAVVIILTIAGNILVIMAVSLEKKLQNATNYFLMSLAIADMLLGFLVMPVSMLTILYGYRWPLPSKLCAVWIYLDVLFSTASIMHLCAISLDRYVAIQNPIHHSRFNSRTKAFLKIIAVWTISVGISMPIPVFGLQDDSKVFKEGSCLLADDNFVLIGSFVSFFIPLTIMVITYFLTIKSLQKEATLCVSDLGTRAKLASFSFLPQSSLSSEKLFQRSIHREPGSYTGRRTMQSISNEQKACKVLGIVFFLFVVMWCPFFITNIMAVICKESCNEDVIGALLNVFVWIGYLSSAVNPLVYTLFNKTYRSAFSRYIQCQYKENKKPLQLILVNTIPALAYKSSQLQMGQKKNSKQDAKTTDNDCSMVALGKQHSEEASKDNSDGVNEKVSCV
Chain of 5-hydroxytryptamine receptor 1A (Homo sapiens) (P08908 whole entry, looked up): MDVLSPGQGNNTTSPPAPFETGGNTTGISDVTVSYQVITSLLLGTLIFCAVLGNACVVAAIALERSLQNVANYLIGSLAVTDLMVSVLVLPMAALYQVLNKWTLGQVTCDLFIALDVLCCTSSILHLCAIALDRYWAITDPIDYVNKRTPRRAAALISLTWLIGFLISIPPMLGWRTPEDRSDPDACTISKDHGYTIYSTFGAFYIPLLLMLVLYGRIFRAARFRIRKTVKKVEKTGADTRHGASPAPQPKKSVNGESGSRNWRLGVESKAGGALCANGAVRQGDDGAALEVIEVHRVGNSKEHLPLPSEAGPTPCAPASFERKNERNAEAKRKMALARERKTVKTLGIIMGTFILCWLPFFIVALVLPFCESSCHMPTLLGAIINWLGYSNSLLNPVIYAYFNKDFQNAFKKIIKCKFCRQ
Chain of Sodium-dependent serotonin transporter (Homo sapiens, UniProt P31645) (P31645 whole entry): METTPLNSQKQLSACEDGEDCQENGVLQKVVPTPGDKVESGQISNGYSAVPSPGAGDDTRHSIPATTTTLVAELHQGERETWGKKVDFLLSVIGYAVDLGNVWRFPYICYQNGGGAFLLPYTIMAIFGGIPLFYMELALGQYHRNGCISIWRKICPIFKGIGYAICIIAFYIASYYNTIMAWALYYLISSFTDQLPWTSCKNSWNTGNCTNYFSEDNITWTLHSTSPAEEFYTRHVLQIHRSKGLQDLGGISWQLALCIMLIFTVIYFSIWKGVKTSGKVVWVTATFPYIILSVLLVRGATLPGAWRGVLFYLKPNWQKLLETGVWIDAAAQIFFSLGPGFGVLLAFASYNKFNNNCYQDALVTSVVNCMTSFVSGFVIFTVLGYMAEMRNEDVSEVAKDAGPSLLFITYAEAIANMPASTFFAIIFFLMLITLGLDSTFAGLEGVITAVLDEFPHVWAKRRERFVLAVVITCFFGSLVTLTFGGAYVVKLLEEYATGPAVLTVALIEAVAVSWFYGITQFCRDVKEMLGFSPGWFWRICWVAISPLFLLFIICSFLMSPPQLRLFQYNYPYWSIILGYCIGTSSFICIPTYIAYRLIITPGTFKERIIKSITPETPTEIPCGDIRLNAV
Chain of Sodium-dependent serotonin transporter (Rattus norvegicus) (P31652 whole entry): as the sequence (P31652 whole entry) above

Row | Structure (SMILES) | CLH [2] | Ki [5] | CLH (Liver microsome) | Ki [7] | Ki [8] | other results
1 | COc1ccc(NC(=O)Nc2ccc(OC(CCN(C)C)c3ccccc3)cc2)cc1Cl (stereo unspecified) | 1.25 mL/min/g | 233 nM | 0.68 mL/min/g | – | – | ED50 (Mus musculus [1]): 13.5 mg/kg; inhibition [3]: 87%; inhibition [4]: -4%; Ratio [6]: 2.2
2 | Cc1cc2c(cc1Cl)N(C(=O)Nc1ccc(Oc3cccnc3C)nc1)CC2 [SB-242084] | – | 274 nM | – | 1770 nM | 0.16 nM | –
3 | Clc1cccc(N2CCNCC2)c1 [CHLOROPHENYLPIPERAZINE] | – | – | – | – | – | Ki [9]: 271 nM
4 | CCn1ccc2cc(NC(=O)Nc3ccc(S(=O)(=O)N(CCN(C)C)Cc4ccccc4)cc3)ccc21 | – | – | – | 65.6 nM | 26.5 nM | –
5 | Cc1cc2c(cc1Cl)N(C(=O)Nc1ccc(S(=O)(=O)N(CCN(C)C)Cc3ccccc3)cc1)CC2 | – | – | – | – | 43.5 nM | inhibition [10]: 11%
6 | CN(C)CCN(Cc1ccccc1)S(=O)(=O)c1ccc(NC(=O)Nc2ccc3c(ccn3C)c2)cc1 | 1.07 mL/min/g | 58.4 nM | 3.94 mL/min/g | 26.2 nM | 14.5 nM | Papp A→B [11]: 8.6 ×10⁻⁶ cm/s; inhibition [3]: 86%; inhibition [4]: -4%; Activity (Mus musculus [12]): Toxic; Activity (Mus musculus [13]): inactive; inhibition [14]: Active; Activity (Mus musculus [15]): Toxic; inhibition [16]: Active; Ratio [6]: 2.2
7 | CN(C)CCN(Cc1ccccc1)S(=O)(=O)c1cccc(N2CCN(c3cccc(Cl)c3)CC2)c1 | – | – | – | 509 nM | 6.1 nM | –
8 | CN(C)CCN(Cc1ccccc1)S(=O)(=O)c1ccc(C(=O)N2CCN(c3cccc(Cl)c3)CC2)cc1 | – | – | – | 110 nM | 477 nM | –
9 | Cc1ccc(NC(=O)Nc2ccc(OC(CCN(C)C)c3ccccc3)cc2)cc1Cl (stereo unspecified) | – | – | – | – | 3 nM | –
10 | CN(C)CCC(Oc1ccc(NC(=O)Nc2ccc3c(ccn3C)c2)cc1)c1ccccc1 (stereo unspecified) | 3.25 mL/min/g | 239 nM | 2.66 mL/min/g | – | – | Ratio [6]: 5.3
11 | COc1ccc(NC(=O)Nc2ccc(S(=O)(=O)N(CCN(C)C)Cc3ccccc3)cc2)cc1Cl | – | – | – | 93 nM | 16.3 nM | –
12 | CN(C)CCN(Cc1ccccc1)S(=O)(=O)c1ccc(NC(=O)N2CCN(c3cccc(Cl)c3)CC2)cc1 | – | – | – | 36.8 nM | 95.6 nM | –
13 | Cc1cc2c(cc1Cl)N(C(=O)Nc1ccc(OC(CCN(C)C)c3ccccc3)cc1)CC2 (stereo unspecified) | 0.9 mL/min/g | 138 nM | 0.06 mL/min/g | 65.5 nM | 0.6 nM | ED50 (Mus musculus [1]): 17.9 mg/kg
14 | CN(C)CCN(Cc1ccccc1)S(=O)(=O)c1ccc(N2CCN(c3cccc(Cl)c3)CC2)cc1 | 1.57 mL/min/g | 9.9 nM | 1.43 mL/min/g | 29.7 nM | 8.1 nM | inhibition [3]: 82%; inhibition [4]: -7%; Activity (Mus musculus [17]): inactive; inhibition [14]: Active; Activity (Mus musculus [18]): Toxic; Activity (Mus musculus [19]): inactive; inhibition [16]: Active; Activity (Mus musculus [20]): Toxic
15 | CN(C)CCN(Cc1ccccc1)S(=O)(=O)c1ccc(I)cc1 | 14.19 mL/min/g | 3 nM | 1.36 mL/min/g | 20.4 nM | 11.6 nM | Ki [9]: 30.4 nM; Ki [21]: 1.8 nM; Ki [22]: 8 nM
16 | Cc1ccc(NC(=O)Nc2ccc(S(=O)(=O)N(CCN(C)C)Cc3ccccc3)cc2)cc1Cl | – | – | – | 209 nM | 4.5 nM | –
